Measurements published in ChEMBL document CHEMBL1201862, “PubChem BioAssay data set” (2004).
Activity calls are given as the source filed them.

Assays:
[1] = target: Peroxisome proliferator-activated receptor gamma/Nuclear receptor corepressor 2 (Homo sapiens, UniProt P37231+Q9Y618); test: Counterscreen for NR2E3 inverse agonists: TR-FRET-based biochemical high throughput dose response assay to identify inverse agonists of the interaction between peroxisome proliferator-activated receptor gamma (PPARg) and nuclear receptor co-repressor 2 (NCOR2).; assay type: functional
[2] = target: Photoreceptor-specific nuclear receptor (Homo sapiens, UniProt Q9Y5X4); test: ligands suppressing NR2E3 nuclear receptor activity – biochemical, TR-FRET, dose response (AID 463256); assay type: functional
[3] = target: Diphosphomevalonate decarboxylase (Streptococcus pneumoniae serotype 2 (strain D39 / NCTC 7466), UniProt Q9FD53); test: diphosphomevalonate decarboxylase inhibitor confirmation – biochemical, cuvette format, coupled NADH fluorescence (AID 1028); assay type: functional
[4] = target: 5-hydroxytryptamine receptor 1A (Homo sapiens, UniProt P08908); assay type: functional
Cytochrome P450 2C19 [5] = target: T1, Cytochrome P450 2C19 (Homo sapiens, UniProt P33261); test: qHTS Assay for Inhibitors and Substrates of Cytochrome P450 2C19. [Related pubchem assays: 410 ]; assay type: ADME; settings: read-out: Potency
Galanin receptor type 2 = Galanin receptor type 2 (Homo sapiens, UniProt O43603); test: Dose Response cell-based high-throughput screening assay to identify antagonists of galanin receptor 2 (GALR2). [Related pubchem assays: 828, 866 ]; assay type: functional
INS1 = test: INS-1E survival protection against cytokine death – cell-based, luminescence, retest, dose response (AID 449756); assay type: functional; settings: Rattus norvegicus;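 further: cell death triggered by IL-1 beta plus TNF-alpha plus IFN-gamma mixture; protective hits raise ATP signal compared with cytokine alone wells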
[6] = reduction of Shn3 3'UTR-driven luciferase in osteoblasts – cell-based, Clone20 osteoblasts, firefly luciferase, cherry-picked, dose response (AID 624132); assay type: functional;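 further: firefly luciferase luminescence from reporter carrying the Shn3 3'UTR in osteoblasts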
[7] = loss of viability in HepG2 cells – cell-based, CellTiter-Glo, cherry-picked, cytotoxicity control for Shn3 inhibitor project, dose response (AID 624134); assay type: functional
[8] = non-specific 3'UTR reporter inhibition in Clone20-Shn3RL – cell-based, Renilla luciferase, cherry-picked, counter-screen for Shn3 inhibitor project, dose response (AID 624133); assay type: functional
[9] = target: Protein-tyrosine kinase 2-beta (Homo sapiens, UniProt Q14289);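 further: potency of inhibitors of PYK2 kinase phosphorylation of poly-GT substrate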
Cytochrome P450 2C19 [10] = target: T1, Cytochrome P450 2C19; test: Cytochrome panel assay with activity outcomes. Panel member name: p450-cyp2c19 Compounds with AC50 equal or less than 10 uM are considered active; assay type: functional; settings: read-out: AC50
Cytochrome P450 2D6 = Cytochrome P450 2D6 (Homo sapiens, UniProt P10635);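 further: CYP2D6 member of a cytochrome P450 panel assay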
Cytochrome P450 2C9 = Cytochrome P450 2C9 (Homo sapiens, UniProt P11712)
[11] = target: T2, Aryl hydrocarbon receptor (Homo sapiens, UniProt P35869); test: Luminescence-based cell-based high throughput dose response assay for activators of the Aryl Hydrocarbon Receptor (AHR). [Related pubchem assays: 2796 (Primary screen (AHR activators in singlicate)), 2845 (Confirmation screen (AHR activators in triplicate)), 434939 (Counterscreen (PXR activators in triplicate)), 2804 (Summary (AHR activators))]; assay type: ADME
T2 sequence (P35869 whole entry): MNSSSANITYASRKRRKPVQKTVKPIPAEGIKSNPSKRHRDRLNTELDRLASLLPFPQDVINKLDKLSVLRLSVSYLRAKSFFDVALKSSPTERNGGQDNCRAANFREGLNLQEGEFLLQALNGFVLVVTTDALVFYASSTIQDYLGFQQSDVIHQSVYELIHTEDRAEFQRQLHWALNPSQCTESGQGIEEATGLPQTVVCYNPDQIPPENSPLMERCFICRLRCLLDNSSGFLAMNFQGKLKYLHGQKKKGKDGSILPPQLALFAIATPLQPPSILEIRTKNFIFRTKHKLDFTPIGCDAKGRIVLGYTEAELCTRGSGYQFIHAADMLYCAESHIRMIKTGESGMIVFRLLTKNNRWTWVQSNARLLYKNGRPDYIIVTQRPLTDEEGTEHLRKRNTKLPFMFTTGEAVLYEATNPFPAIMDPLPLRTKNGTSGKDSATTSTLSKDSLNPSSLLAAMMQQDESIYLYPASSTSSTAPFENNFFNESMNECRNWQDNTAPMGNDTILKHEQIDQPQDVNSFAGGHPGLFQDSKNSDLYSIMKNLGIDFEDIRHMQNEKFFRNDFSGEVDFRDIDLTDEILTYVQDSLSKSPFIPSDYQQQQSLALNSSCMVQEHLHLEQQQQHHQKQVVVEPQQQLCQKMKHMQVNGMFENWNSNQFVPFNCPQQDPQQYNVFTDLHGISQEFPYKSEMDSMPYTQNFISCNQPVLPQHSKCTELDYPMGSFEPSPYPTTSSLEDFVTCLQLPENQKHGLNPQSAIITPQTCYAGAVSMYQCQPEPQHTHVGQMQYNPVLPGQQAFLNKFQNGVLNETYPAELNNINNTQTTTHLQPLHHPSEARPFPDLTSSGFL

[12] = target: Mitogen-activated protein kinase 10 (Homo sapiens, UniProt P53779); test: Dose response biochemical screening assay for inhibitors of c-Jun N-Terminal Kinase 3 (JNK3). [Related pubchem assays: 746 ]
Leucine aminopeptidase = target: T3, Leucine aminopeptidase (Plasmodium falciparum 3D7, UniProt Q8IL11); test: P. falciparum M17LAP inhibitors, primary screen, biochemical, fluorogenic H-Leu-NHMec substrate, 1536-well (AID 1619); assay type: functional
T3 sequence (Q8IL11 whole entry): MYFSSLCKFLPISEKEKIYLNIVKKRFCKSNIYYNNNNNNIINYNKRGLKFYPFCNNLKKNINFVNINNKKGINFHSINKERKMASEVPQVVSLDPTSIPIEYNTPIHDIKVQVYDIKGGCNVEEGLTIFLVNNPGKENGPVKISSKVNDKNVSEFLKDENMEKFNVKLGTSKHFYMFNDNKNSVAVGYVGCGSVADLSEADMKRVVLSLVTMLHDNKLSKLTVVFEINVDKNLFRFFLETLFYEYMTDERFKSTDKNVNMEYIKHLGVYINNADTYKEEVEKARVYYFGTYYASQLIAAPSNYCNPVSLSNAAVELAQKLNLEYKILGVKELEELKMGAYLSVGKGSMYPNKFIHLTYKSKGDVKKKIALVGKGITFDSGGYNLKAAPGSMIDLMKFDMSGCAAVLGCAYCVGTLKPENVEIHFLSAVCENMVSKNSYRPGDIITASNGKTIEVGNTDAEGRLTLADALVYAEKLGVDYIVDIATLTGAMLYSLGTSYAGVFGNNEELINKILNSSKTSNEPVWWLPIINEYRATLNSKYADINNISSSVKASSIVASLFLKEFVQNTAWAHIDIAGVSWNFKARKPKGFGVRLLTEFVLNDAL

Aspartyl aminopeptidase = Aspartyl aminopeptidase (Plasmodium falciparum 3D7, UniProt Q8I2J3); test: Counterscreen for inhibitors of M1 and M17 aminopeptidases: QFRET-based biochemical high throughput dose response assay for inhibitors of the Plasmodium falciparum M18 Aspartyl Aminopeptidase (PFM18AAP). [Related PubChem assays: 1619 (Screening assay (M17LAP inhibitors).), 1445 (Screening assay (M1AAP inhibitors).)]
Procathepsin L = Procathepsin L (Homo sapiens, UniProt P07711); test: CTSL1 protease inhibition – biochemical, QFRET, 1536-well, counter-screen for M1/M17 aminopeptidase inhibitor project, dose response (AID 2214)
[13] = target: T4, Tyrosine-protein phosphatase non-receptor type 7 (Homo sapiens, UniProt P35236); test: HePTP tyrosine phosphatase activity blockers – biochemical, absorbance, leukemia target, primary screen (AID 521); assay type: functional
T4 sequence (P35236 whole entry): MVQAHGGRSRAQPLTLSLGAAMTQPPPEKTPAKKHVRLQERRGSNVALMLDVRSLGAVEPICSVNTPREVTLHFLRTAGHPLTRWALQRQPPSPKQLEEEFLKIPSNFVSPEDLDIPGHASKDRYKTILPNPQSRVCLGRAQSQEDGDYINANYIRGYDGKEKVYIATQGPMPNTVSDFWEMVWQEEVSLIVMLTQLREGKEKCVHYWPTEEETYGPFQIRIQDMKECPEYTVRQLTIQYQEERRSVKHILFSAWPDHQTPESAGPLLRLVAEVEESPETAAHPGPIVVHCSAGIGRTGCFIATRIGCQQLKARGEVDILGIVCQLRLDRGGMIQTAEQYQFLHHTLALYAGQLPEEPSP

Streptokinase A = target: T5, Streptokinase A (Streptococcus pyogenes serotype M1, UniProt P10520); test: viability-normalized secreted streptokinase activity reduction – plasminogen activation absorbance, OD405, dose response (AID 1914); assay type: functional, Streptococcus pyogenes M1 GAS;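 further: secreted streptokinase activity via plasminogen activation per viability signal from cell pellet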
T5 sequence (P10520 whole entry): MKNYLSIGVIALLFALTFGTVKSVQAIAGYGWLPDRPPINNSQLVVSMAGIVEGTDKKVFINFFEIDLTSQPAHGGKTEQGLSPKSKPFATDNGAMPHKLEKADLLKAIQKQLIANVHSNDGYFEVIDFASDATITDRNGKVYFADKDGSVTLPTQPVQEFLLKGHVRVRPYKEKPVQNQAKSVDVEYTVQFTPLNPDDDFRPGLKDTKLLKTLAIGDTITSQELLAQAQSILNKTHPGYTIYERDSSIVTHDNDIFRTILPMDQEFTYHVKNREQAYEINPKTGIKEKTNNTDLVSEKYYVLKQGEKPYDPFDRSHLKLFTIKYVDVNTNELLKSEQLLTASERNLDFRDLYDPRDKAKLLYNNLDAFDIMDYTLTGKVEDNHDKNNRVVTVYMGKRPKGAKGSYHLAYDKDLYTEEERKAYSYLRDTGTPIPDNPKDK

Streptococcus = test: GAS UMAA2166 growth inhibition – luminescence, BacTiterGlo, counter-screen for streptokinase expression inhibitor project, dose response (AID 1915); assay type: functional, organism-based;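 further: potency for reduction of bacterial viability or growth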
[14] = HEK-293T viability loss after treatment – luminescence, T-cell screen hits, cytotoxicity control for TCR NF-kB inhibitor project, dose response (AID 489026); assay type: functional, cell-based;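 further: cells exposed to compound about 14 hours before the viability readout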
14-3-3 protein gamma = 14-3-3 protein gamma (Homo sapiens, UniProt P61981); test: modulators of 14-3-3 gamma client binding – dose response (AID 711); assay type: functional
14-3-3 protein gamma, sequence (P61981 whole entry): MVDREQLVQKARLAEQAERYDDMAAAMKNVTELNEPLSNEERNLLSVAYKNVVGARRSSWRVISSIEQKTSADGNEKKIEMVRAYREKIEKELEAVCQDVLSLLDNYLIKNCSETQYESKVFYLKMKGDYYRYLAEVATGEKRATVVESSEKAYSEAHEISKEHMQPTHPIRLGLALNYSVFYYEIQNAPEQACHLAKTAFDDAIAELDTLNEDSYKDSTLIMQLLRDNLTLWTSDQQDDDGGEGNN

T1 sequence (P33261 whole entry): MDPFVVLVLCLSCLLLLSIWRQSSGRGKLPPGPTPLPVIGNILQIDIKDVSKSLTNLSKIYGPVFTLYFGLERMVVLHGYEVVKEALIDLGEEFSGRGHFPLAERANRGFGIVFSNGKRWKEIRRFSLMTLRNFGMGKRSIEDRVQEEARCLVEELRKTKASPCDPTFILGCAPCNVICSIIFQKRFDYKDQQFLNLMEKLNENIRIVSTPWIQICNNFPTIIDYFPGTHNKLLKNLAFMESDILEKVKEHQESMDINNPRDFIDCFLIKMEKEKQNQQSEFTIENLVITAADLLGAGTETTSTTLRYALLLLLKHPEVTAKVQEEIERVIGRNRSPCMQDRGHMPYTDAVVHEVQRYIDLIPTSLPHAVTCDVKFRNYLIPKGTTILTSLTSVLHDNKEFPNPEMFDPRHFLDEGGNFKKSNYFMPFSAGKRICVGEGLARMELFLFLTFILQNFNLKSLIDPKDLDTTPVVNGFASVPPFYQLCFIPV
Aspartyl aminopeptidase, sequence (Q8I2J3 whole entry): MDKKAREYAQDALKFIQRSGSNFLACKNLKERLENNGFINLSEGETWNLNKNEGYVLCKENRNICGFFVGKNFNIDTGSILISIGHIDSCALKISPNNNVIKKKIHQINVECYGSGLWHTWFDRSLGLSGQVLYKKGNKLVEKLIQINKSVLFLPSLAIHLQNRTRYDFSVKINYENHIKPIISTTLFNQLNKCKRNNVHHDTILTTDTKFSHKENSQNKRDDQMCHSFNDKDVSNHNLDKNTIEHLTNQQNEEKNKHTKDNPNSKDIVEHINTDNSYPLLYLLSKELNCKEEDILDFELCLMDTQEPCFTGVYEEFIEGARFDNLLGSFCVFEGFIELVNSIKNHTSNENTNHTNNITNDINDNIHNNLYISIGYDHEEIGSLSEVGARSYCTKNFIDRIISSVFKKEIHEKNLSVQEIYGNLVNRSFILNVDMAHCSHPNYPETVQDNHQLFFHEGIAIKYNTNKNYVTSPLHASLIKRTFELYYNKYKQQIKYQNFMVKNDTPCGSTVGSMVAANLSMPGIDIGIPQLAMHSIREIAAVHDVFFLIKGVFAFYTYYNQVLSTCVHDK
Protein-tyrosine kinase 2-beta, sequence (Q14289 whole entry): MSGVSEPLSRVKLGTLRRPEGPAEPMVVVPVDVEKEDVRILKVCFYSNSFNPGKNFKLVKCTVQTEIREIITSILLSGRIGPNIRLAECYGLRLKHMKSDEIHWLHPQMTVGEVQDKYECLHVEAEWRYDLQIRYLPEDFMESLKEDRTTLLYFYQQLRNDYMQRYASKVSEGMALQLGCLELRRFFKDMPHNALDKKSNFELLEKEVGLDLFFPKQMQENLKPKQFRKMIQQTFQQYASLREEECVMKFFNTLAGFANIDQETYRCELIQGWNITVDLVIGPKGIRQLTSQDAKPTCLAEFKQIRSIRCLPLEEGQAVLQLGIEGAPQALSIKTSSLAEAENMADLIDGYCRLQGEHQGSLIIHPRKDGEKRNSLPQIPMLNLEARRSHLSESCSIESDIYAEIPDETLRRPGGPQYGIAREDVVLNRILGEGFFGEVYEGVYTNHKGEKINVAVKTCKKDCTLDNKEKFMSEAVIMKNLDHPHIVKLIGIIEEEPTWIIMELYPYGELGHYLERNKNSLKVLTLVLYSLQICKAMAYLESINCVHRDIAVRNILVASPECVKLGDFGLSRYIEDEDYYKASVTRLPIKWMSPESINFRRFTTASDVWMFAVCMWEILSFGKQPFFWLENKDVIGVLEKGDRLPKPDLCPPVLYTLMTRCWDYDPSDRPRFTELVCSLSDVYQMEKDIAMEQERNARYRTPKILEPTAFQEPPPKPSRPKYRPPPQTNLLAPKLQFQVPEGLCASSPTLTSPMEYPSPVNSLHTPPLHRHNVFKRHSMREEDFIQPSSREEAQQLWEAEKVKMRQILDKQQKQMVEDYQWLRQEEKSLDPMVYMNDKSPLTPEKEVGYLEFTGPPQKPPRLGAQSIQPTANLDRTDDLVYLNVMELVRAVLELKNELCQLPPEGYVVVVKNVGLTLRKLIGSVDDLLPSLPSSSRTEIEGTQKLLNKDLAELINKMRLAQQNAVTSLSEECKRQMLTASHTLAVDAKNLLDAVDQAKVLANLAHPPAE
Cytochrome P450 2C9, sequence (P11712 whole entry): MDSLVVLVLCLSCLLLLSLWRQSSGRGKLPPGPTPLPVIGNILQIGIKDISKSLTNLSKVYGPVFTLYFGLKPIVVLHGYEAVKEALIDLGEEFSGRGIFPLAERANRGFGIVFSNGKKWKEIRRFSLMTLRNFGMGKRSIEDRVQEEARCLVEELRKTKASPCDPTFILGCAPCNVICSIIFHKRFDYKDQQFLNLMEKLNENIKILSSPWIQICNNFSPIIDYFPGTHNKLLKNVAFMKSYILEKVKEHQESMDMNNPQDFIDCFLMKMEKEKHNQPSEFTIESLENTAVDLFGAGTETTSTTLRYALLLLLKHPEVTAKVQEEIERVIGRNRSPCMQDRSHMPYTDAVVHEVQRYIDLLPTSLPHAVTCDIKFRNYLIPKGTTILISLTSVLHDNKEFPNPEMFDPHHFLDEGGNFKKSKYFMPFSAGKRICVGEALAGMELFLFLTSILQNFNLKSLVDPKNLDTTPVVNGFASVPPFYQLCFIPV
Diphosphomevalonate decarboxylase, sequence (Q9FD53 whole entry): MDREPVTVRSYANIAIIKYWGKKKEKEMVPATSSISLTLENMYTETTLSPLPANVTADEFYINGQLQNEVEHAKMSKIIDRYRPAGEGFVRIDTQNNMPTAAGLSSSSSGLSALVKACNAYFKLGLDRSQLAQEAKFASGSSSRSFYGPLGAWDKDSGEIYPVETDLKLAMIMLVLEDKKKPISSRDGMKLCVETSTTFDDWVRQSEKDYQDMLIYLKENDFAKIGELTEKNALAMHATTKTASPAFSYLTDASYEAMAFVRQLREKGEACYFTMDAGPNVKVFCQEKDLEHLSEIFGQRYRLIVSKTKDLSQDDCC
Mitogen-activated protein kinase 10, sequence (P53779 whole entry): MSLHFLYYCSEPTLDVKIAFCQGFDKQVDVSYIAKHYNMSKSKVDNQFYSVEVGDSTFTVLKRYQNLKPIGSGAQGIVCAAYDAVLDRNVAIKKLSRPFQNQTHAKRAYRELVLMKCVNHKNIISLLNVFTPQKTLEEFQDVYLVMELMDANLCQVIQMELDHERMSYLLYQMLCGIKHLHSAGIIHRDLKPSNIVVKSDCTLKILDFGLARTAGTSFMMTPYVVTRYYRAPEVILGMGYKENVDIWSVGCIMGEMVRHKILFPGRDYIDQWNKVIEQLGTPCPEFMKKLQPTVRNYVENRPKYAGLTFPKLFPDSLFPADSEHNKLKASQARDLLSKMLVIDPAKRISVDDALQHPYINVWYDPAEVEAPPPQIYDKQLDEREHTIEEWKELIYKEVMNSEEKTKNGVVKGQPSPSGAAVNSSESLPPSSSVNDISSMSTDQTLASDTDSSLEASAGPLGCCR
Photoreceptor-specific nuclear receptor, sequence (Q9Y5X4 whole entry): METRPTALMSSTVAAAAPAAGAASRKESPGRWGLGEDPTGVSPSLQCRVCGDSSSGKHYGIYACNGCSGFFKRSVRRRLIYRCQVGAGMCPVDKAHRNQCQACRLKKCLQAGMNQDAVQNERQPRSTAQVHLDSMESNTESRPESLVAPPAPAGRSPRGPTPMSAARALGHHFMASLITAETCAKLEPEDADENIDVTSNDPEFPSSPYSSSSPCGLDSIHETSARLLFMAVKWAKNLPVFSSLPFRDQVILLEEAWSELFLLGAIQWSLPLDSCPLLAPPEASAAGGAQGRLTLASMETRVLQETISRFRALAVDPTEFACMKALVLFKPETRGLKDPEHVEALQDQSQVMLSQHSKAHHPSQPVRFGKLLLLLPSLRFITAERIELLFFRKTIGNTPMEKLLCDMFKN
Procathepsin L, sequence (P07711 whole entry): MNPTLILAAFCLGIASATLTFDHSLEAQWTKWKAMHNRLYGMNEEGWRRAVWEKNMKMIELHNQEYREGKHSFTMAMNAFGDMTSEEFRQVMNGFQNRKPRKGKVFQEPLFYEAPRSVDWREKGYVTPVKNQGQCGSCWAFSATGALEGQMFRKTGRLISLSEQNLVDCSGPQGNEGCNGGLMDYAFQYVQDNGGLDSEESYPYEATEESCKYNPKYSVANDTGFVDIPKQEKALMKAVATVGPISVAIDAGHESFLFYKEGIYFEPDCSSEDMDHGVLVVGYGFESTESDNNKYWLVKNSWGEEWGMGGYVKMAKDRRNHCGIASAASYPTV
Galanin receptor type 2, sequence (O43603 whole entry): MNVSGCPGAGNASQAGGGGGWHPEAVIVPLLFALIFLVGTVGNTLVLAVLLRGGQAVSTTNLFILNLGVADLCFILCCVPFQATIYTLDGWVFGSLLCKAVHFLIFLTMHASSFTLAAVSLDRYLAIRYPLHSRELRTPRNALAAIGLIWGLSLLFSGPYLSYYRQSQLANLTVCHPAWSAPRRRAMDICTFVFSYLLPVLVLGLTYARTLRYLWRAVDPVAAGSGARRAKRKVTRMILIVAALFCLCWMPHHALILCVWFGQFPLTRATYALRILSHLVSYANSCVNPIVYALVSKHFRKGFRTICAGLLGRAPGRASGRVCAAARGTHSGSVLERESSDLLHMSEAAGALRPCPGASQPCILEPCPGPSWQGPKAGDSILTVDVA

COc1ccc(-n2nc(C(=O)NCC(=O)NCc3ccc(F)cc3)c3ccccc3c2=O)cc1OC
IC50 [1]: 0.941 µM (active)
IC50 [2]: 1.46 µM (active)

O=C(NC1CC1)c1ccc(-n2sc3ccccc3c2=O)cc1
IC50 [3]: 11.4 µM (active)

O=S(=O)(c1cccc(Cl)c1)N1CCCC1
EC50 [4]: > 50 µM (not active)

COC(=O)C(C(C)=O)C(NC(=O)NCc1ccccc1)c1ccccc1 (centres undefined)
AC50 (Cytochrome P450 2C19 [5]): 1.26 µM (inconclusive)

Cc1cccc(C(=O)Nc2ccc(C(=O)/C=C/c3cccnc3)cc2)c1
IC50 (Galanin receptor type 2): 21.4 µM (not active)
AC50 (INS1): 5.53 µM (active)
AC50 [6]: 6.23 µM (active)
AC50 [7]: 30.9 µM (active)
AC50 [8]: 10.7 µM (active)

O=C(NCCc1c[nH]c2ccccc12)C1CCN(c2nnc(N3CCCC3=O)s2)CC1
IC50 [9]: 22.7 µM (not active)
AC50 (Cytochrome P450 2C19 [10]): 7.94 µM (inconclusive)
AC50 (Cytochrome P450 2D6): 10 µM (inconclusive)
AC50 (Cytochrome P450 2C9): 10 µM (inconclusive)

NC(=O)c1oc2ccccc2c1NC(=O)c1ccc(F)cc1
EC50 [11]: 4.12 µM (active)
IC50 [12]: 23.9 µM (not active)

Cc1c(O)n(-c2ccccc2)c(SCC(=O)Nc2ccc3c4c(cccc24)CC3)nc1=O
IC50 (Leucine aminopeptidase): 5.11 µM (active)
IC50 (Aspartyl aminopeptidase): > 73.5 µM (not active)
IC50 (Procathepsin L): > 59.6 µM (not active)

COc1cccc2sc(Nc3nnc(-c4ccccc4Cl)o3)nc12
IC50 [13]: > 100 µM (not active)
EC50 (Streptokinase A): > 150 µM (not active)
EC50 (Streptococcus): > 150 µM (inconclusive)
IC50 [14]: 61.1 µM (inactive)

Cc1nc2nc(Cc3ccccc3)nn2c(O)c1Cc1ccccc1
IC50 (14-3-3 protein gamma): > 50 µM (not active)
